This passage reports AC50 results from ChEMBL document CHEMBL5291721, “A preclinical secondary pharmacology resource illuminates target-adverse drug reaction associations of marketed drugs” (Nat Commun, 2023).

Assay [1] has as its target T1, Muscarinic acetylcholine receptor M1 (Homo sapiens, UniProt P11229).
T1 sequence (P11229 whole entry): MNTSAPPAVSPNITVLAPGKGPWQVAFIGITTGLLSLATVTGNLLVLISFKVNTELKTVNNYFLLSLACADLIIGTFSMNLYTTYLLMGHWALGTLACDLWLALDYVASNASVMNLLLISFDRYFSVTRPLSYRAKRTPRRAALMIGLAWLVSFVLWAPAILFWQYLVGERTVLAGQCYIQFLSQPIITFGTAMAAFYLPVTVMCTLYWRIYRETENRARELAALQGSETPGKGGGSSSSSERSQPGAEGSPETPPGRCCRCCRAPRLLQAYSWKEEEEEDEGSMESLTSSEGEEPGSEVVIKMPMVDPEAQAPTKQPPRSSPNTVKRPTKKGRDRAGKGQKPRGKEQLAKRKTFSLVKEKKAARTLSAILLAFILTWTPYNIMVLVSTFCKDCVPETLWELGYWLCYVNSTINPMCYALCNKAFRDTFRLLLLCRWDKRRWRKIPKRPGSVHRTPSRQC
Type of assay: functional, cell-based.

Assay [2] deals with T1, Muscarinic acetylcholine receptor M1. The format is functional, cell-based. The source holds these as a separate data set.
The target of assay [3] is Beta-1 adrenergic receptor (Homo sapiens, UniProt P08588). Type of assay: functional.
Assay [4] concerns the target Melanocortin receptor 3 (Homo sapiens, UniProt P41968).
Assay [5] deals with T2, Type-1 angiotensin II receptor (Homo sapiens, UniProt P30556).
T2 sequence (P30556 whole entry): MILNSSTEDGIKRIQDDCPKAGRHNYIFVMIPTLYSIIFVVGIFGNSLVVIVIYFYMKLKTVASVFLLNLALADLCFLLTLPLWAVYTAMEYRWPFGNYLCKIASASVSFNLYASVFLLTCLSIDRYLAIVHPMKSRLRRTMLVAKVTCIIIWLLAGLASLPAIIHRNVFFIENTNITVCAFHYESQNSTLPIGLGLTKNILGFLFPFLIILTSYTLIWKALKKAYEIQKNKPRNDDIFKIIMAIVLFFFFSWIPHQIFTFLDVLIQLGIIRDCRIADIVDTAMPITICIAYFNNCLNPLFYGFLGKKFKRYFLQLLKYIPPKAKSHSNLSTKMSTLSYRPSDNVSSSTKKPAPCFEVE

Assay [6] deals with T3, Cholecystokinin receptor type A (Homo sapiens, UniProt P32238).
T3 sequence (P32238 whole entry): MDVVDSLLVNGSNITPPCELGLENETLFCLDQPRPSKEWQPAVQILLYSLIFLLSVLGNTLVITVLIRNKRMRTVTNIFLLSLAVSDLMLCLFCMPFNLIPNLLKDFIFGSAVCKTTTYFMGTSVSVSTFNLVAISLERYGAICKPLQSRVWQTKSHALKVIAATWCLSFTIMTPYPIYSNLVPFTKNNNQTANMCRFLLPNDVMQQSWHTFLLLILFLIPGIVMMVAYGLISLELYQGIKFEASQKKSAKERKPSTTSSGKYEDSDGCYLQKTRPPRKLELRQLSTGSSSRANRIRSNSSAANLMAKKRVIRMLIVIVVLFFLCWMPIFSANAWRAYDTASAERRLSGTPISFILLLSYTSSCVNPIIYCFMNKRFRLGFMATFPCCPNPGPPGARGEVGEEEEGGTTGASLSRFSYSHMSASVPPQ

Assay [7] deals with Growth hormone secretagogue receptor type 1 (Homo sapiens, UniProt Q92847).
Assay [8] concerns the target Motilin receptor (Homo sapiens, UniProt O43193).
Further: assay procedure not described here.

Motilin receptor, sequence (O43193 whole entry): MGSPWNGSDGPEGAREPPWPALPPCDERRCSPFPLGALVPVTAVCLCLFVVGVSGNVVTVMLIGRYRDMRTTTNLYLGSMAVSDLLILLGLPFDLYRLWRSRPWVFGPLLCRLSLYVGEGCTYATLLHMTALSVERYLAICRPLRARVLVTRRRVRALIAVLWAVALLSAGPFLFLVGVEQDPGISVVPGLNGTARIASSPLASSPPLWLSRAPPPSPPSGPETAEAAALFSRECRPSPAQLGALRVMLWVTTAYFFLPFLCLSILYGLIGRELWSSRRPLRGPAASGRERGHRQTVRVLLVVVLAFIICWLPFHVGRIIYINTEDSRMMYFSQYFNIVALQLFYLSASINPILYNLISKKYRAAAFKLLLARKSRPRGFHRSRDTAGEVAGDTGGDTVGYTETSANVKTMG
Growth hormone secretagogue receptor type 1, sequence (Q92847 whole entry): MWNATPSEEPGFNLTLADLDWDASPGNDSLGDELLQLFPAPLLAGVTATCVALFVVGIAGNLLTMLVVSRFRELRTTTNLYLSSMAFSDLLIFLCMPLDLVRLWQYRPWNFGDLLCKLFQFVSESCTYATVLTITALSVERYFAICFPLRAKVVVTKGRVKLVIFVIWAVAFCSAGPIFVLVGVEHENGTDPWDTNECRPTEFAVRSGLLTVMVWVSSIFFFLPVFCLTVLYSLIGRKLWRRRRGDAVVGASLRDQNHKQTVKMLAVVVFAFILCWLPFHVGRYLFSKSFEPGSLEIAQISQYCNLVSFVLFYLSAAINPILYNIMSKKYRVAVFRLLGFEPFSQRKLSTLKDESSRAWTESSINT
Melanocortin receptor 3, sequence (P41968 whole entry): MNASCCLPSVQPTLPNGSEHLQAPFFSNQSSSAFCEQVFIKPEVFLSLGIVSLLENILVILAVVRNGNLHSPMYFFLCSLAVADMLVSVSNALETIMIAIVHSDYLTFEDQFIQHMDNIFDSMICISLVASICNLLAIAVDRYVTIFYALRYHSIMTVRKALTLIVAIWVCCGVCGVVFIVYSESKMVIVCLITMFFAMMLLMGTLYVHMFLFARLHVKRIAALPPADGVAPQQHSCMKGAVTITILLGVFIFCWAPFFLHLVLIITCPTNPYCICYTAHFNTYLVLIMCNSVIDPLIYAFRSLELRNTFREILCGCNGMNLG
Beta-1 adrenergic receptor, sequence (P08588 whole entry): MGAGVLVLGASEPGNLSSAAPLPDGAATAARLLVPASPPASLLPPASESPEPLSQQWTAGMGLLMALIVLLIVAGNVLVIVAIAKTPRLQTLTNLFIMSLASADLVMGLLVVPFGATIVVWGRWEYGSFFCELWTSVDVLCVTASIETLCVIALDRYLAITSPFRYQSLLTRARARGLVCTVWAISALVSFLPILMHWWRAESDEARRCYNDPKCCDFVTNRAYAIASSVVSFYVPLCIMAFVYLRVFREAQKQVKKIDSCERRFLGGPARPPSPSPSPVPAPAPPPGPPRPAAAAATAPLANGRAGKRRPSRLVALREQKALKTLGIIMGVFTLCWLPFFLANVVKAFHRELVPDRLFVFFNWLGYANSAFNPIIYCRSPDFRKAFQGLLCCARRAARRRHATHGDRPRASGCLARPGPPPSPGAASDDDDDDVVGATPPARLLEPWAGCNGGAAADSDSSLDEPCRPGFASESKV

As for `CCCCc1oc2ccc(NS(C)(=O)=O)cc2c1C(=O)c1ccc(OCCCN(CCCC)CCCC)cc1` [DRONEDARONE], the AC50 in assay [1] is more than 30 µM; in assay [2], 7.76 µM.
As for `CC(C)C[C@H](NC(=O)[C@@H](O)[C@H](N)Cc1ccccc1)C(=O)O` [UBENIMEX], the half-maximal activity concentration (AC50) in assay [3] and in assay [4] was more than 30 µM each time.
Take `CC[C@]12CCCN3CCc4c(n(c5ccccc45)[C@@](O)(C(=O)OC)C1)[C@@H]32` [VINCAMINE]: the AC50 in assay [1] and in assay [2] was more than 30 µM throughout.
As to `CC(C)[C@@H]1CC[C@@H](C)C[C@H]1O` [LEVOMENTHOL], the AC50 in assay [1] and in assay [2] was more than 30 µM each time.
As to `CC(=O)NO` [ACETOHYDROXAMIC ACID], the half-maximal activity concentration (AC50) in assay [1] and in assay [2] was more than 30 µM each time.
Consider `C[C@H]1CN(C[C@H](Cc2ccccc2)C(=O)NCC(=O)O)CC[C@@]1(C)c1cccc(O)c1` [ALVIMOPAN], for which the half-maximal activity concentration (AC50) in assay [1] and in assay [2] was more than 30 µM each time.
Consider `C[N+]1(C)CCCC(OC(=O)C(O)(c2ccccc2)c2ccccc2)C1` (stereo not drawn) [MEPENZOLATE], for which the half-maximal activity concentration (AC50) in assay [1] and in assay [2] was more than 30 µM in each case.
`COc1c2occc2c(OC)c2c(=O)cc(C)oc12` [KHELLIN]: the AC50 in assay [1] and in assay [2] was more than 30 µM in each case.
Take `Cc1ccsc1C(=CCCN1CCC[C@@H](C(=O)O)C1)c1sccc1C` [TIAGABINE]: the AC50 in assay [1] and in assay [2] was more than 30 µM throughout.
`O=C(NNCS(=O)(=O)O)c1ccncc1` [METHANIAZIDE]: the AC50 in assay [1] and in assay [2] was more than 30 µM in each case.
`CC(C)C(=O)Oc1ccc(CO)cc1[C@H](CCN(C(C)C)C(C)C)c1ccccc1` [FESOTERODINE]: the concentration at half-maximal activity (AC50) in assay [1] was more than 30 µM; in assay [2] it was 0.354 µM.
With `CC(=O)NCCCCCC(=O)O` [ACEXAMIC ACID], the concentration at half-maximal activity (AC50) in assay [1] and in assay [2] was more than 30 µM throughout.
With `CC=CC1=C(C(=O)O)N2C(=O)[C@@H](NC(=O)[C@H](N)c3ccc(O)cc3)[C@H]2SC1` [CEFPROZIL], the AC50 in assay [3], in assay [5], in assay [6], in assay [7], in assay [4] and in assay [8] was more than 30 µM in each case.
On to `CCCCC1C(=O)N(c2ccccc2)N(c2ccc(O)cc2)C1=O` (stereo not drawn) [OXYPHENBUTAZONE ANHYDROUS], for which the AC50 in assay [1] and in assay [2] was more than 30 µM in each case.
On to `C[Se]CC[C@H](N)C(=O)O` [SELENOMETHIONINE], for which the AC50 in assay [1] and in assay [2] was more than 30 µM in each case.
With `CC(C(=O)O)c1ccc2oc(-c3ccc(Cl)cc3)nc2c1` (stereo not drawn) [BENOXAPROFEN], the AC50 in assay [3], in assay [5], in assay [6], in assay [7], in assay [4] and in assay [8] was more than 30 µM each time.
For the compound `Cc1ccccc1C(=O)Nc1ccc(C(=O)N2CCCC(O)c3cc(Cl)ccc32)c(C)c1` (stereo not drawn) [TOLVAPTAN], the concentration at half-maximal activity (AC50) in assay [1] was more than 30 µM; in assay [2] it was 11.3 µM.
Taken in the same sequence, the figures for `C=CC(=O)Nc1cccc(Oc2nc(Nc3ccc(N4CCN(C)CC4)cc3)nc3ccsc23)c1` [OLMUTINIB] were more than 30 µM and 2.29 µM.
For `CCCCC(CC)CN1CN(CC(CC)CCCC)CC(C)(N)C1` (stereo not drawn) [HEXETIDINE] the same measures were more than 30 µM and 9.85 µM.
As to `CCNC(=O)/C=C(C)/C=C/C=C(C)/C=C/c1c(C)cc(OC)c(C)c1C` [MOTRETINIDE], the AC50 in assay [1] is more than 30 µM; in assay [2] it was 16.6 µM.
For `C[N+](C)(CCCCCC[N+](C)(C)C1c2ccccc2-c2ccccc21)C1c2ccccc2-c2ccccc21` [HEXAFLUORENIUM] the same measures were more than 30 µM and 7.41 µM.
As for `Cc1cc(=O)[nH]c(=S)[nH]1` [METHYLTHIOURACIL], the AC50 in assay [1] and in assay [2] was more than 30 µM throughout.
For `CC(=O)Nc1ccc(CC(=O)O)cc1` [ACTARIT], the half-maximal activity concentration (AC50) in assay [3], in assay [5], in assay [6], in assay [7], in assay [4] and in assay [8] was more than 30 µM each time.
Take `CCCCCCCN(CC)CCCC(O)c1ccc(NS(C)(=O)=O)cc1` (stereo not drawn) [IBUTILIDE]: the AC50 in assay [3], in assay [5], in assay [6], in assay [7], in assay [4] and in assay [8] was more than 30 µM throughout.
For the compound `CC[C@@H]1C[C@]1(NC(=O)[C@@H]1C[C@@H]2CN1C(=O)[C@H](C(C)(C)C)NC(=O)OCC(C)(C)CCCCc1cccc3c1CN(C3)C(=O)O2)C(=O)NS(=O)(=O)C1CC1`, the AC50 is 23.4 µM in assay [1] and more than 3 µM in assay [2].
As for `CNC(=C[N+](=O)[O-])NCCSCc1csc(CN(C)C)n1` [NIZATIDINE], the AC50 in assay [3], in assay [5], in assay [6], in assay [7], in assay [4] and in assay [8] was more than 10 µM throughout.
As to `COC(=O)[C@@H](N)Cc1ccc(O)c(O)c1` [MELEVODOPA], the AC50 was more than 30 µM in assay [1] and 22.1 µM in assay [2].
Regarding `Cc1cc(=O)oc2cc(O)ccc12` [HYMECROMONE], the AC50 in assay [1] and in assay [2] was more than 30 µM in each case.
For `C[C@H]1O[C@@H](O[C@H]2CC[C@@]3(C)[C@H](CC[C@@H]4[C@@H]3C[C@@H](O)[C@]3(C)[C@@H](C5=CC(=O)OC5)CC[C@]43O)C2)C[C@H](O)[C@@H]1O[C@H]1C[C@H](O)[C@H](O[C@H]2C[C@H](O)[C@H](O[C@@H]3O[C@H](CO)[C@@H](O)[C@H](O)[C@H]3O)[C@@H](C)O2)[C@@H](C)O1` [DESLANOSIDE], the AC50 in assay [1] and in assay [2] was more than 30 µM each time.
As for `C=C(C)CNc1ccc(C(C)C(=O)O)cc1` (stereo not drawn) [ALMINOPROFEN], the AC50 in assay [1] and in assay [2] was more than 30 µM in each case.
`Cc1cc(C2CCCCC2)n(O)c(=O)c1` [CICLOPIROX]: the concentration at half-maximal activity (AC50) in assay [3] and in assay [4] was more than 30 µM each time.
Take `O=C(O)CN(CCN(CC(=O)O)CC(=O)O)CCN(CC(=O)O)CC(=O)O` [PENTETIC ACID]: the AC50 in assay [1] and in assay [2] was more than 30 µM throughout.
For the compound `COc1cc(C(=O)NS(=O)(=O)c2ccccc2C)ccc1Cc1cn(C)c2ccc(NC(=O)OC3CCCC3)cc12` [ZAFIRLUKAST], the half-maximal activity concentration (AC50) in assay [3], in assay [5], in assay [6], in assay [7], in assay [4] and in assay [8] was more than 10 µM in each case.
On to `C=N[C@@H](C(=O)N[C@@H]1C(=O)N2[C@@H]1SC(C)(C)[C@@H]2C(=O)O)c1ccccc1` [METAMPICILLIN], for which the AC50 in assay [1] and in assay [2] was more than 30 µM in each case.
Take `CC[C@H]1OC(=O)[C@H](C)[C@@H](O[C@H]2C[C@@](C)(OC)[C@@H](O)[C@H](C)O2)[C@H](C)[C@@H](O[C@@H]2O[C@H](C)C[C@H](N(C)C)[C@H]2O)[C@](C)(O)C[C@@H](C)[C@@H]2N[C@@H](COCCOC)O[C@H]([C@H]2C)[C@]1(C)O` [DIRITHROMYCIN]: the AC50 in assay [1] and in assay [2] was more than 30 µM each time.
`CCCc1cc(=O)[nH]c(=S)[nH]1` [PROPYLTHIOURACIL]: the AC50 in assay [3], in assay [5], in assay [6], in assay [7], in assay [4] and in assay [8] was more than 10 µM each time.
On to `Nc1cccc2c1C(=O)N(C1CCC(=O)NC1=O)C2=O` (stereo not drawn) [POMALIDOMIDE], for which the AC50 in assay [1] and in assay [2] was more than 30 µM throughout.
`Cn1cc(C(=O)[C@@H]2CCc3nc[nH]c3C2)c2ccccc21` [RAMOSETRON]: the half-maximal activity concentration (AC50) in assay [3], in assay [5], in assay [6], in assay [7], in assay [4] and in assay [8] was more than 30 µM each time.
